Assay results taken from patent US6642217B2, “Triterpenes having human antifungal and antiyeast activity” (Naturtek, LLC, priority 2000, dated 2003).

What was measured:
[1] = system: Epidermophyton floccosum; assay: Agar dilution method, growth on Sabouraud dextrose agar slants; type: cell-based; design: key to Fungal growth: +++: Maximum Fungal Growth; ++: Moderate Fungal Growth; +: Minimum Fungal Growth; +/−: Very little Fungal Growth; −: No Fungal Growth; settings: 12th day after inoculation
Description: (§1) Agar dilution method. Sabouraud Dextrose Agar (Difco Laboratories, Michigan) was prepared according to the manufacturer's instructions. Five ml was dispensed in a 100×25 mm tube and autoclaved. To each tube containing 5.0 ml of liquid agar at 45° C., 0.5, 0.25, 0.12, or 0.063 ml of a DMSO solution of the compound was added to give the final indicated concentrations in Table 2. The agar was then solidified in slants. Fungal cultures were inoculated. The slants were incubated at 25-28° C. for 10-12 days, and the growth of the fungus was recorded every second day.

[2] = system: Microsporum audouinni; assay: Direct addition method, solid compound in Sabouraud dextrose agar; type: cell-based, Microsporum audouinii; design: key to Fungal growth: +++: Maximum Fungal Growth; ++: Moderate Fungal Growth; +: Minimum Fungal Growth; +/−: Very little Fungal Growth; −: No Fungal Growth; settings: 4 mg/mL of agar; 12th day after inoculation
Description: (§2) Direct addition method. Sabouraud dextrose agar was prepared according to the manufacturer's instructions and 5.0 ml was dispensed in each 100×25 mm tube. The tubes were autoclaved. To each tube containing 5.0 ml of liquid agar at 45° C., 20 mg of solid test compound was added, to give a final concentration of 4 mg/ml. The agar was solidified in slants. The fungal cultures were then innoculated. The slants were incubated at 25-28 ° C. for 10-12 days, and the growth of the fungus was recorded every second day. The results in Table 2 indicate growth at the 12th day of inoculation.

[3] = system: Epidermophyton floccosum; assay: as above; type: cell-based; design: key: +++: Maximum Fungal Growth; ++: Moderate Fungal Growth; +: Minimum Fungal Growth; +/−: Very little Fungal Growth; −: No Fungal Growth; settings: 4 mg/mL of agar; 12th day after inoculation
Description: as §2

[4] = system: Microsporum canis; assay: as above; type: cell-based; design: key: +++: Maximum Fungal Growth; ++: Moderate Fungal Growth; +: Minimum Fungal Growth; +/−: Very little Fungal Growth; −: No Fungal Growth; settings: 4 mg/mL of agar; 12th day after inoculation
Description: as §2

[5] = system: Trichophyton rubrum; assay: as above; type: cell-based; design: key: +++: Maximum Fungal Growth; ++: Moderate Fungal Growth; +: Minimum Fungal Growth; +/−: Very little Fungal Growth; −: No Fungal Growth; settings: 4 mg/mL of agar; 12th day after inoculation
Description: as §2

[6] = system: Pityrosporum ovale; assay: as above; type: cell-based; design: key: +++: Maximum Fungal Growth; ++: Moderate Fungal Growth; +: Minimum Fungal Growth; +/−: Very little Fungal Growth; −: No Fungal Growth; settings: 4 mg/mL of agar; 12th day after inoculation
Description: as §2

[7] = system: Trichophyton mentagrophyte; assay: Agar dilution method, growth on Sabouraud dextrose agar slants; type: cell-based, Trichophyton mentagrophytes; design: key to Fungal growth: +++: Maximum Fungal Growth; ++: Moderate Fungal Growth; +: Minimum Fungal Growth; +/−: Very little Fungal Growth; −: No Fungal Growth; settings: 12th day after inoculation
Description: as §1

[8] = system: Microsporum audouinii; assay: Summary of anti-fungal assays (direct addition, agar dilution, liquid culture); type: cell-based; settings: stated in words (Tables 1a/1b, text to Table 5)
Description: (§3) This example summarizes the results of various other assays of the anti-fungal activity of betulin derivatives. Table 5 summarizes results using different assay methods—direct addition, agar dilution, and direct addition to liquid culture, as disclosed in the previous three Examples. In some cases, only one type of assay was done with a compound. In other cases, the compound was tested by multiple assays.

[9] = system: Trichophyton tonsurans; assay: as above; type: cell-based; settings: stated in words (Tables 1a/1b, text to Table 5)
Description: as §3

[10] = system: Pityrosporum ovale; assay: Direct addition into the Pityrosporum agar; type: cell-based; design: key to Pityrosporum ovale growth: +++: Maximum Growth; ++: Moderate Growth; +: Minimum Growth; +/−: Very Little Growth; −: No Growth; settings: 4 mg/ml in the agar; 18 hours after inoculation
Description: Direct addition method. Sabouraud dextrose agar was prepared according to the manufacturer's instructions and 5.0 ml was dispensed in each 100×25 mm tube. The tubes were autoclaved. To each tube containing 5.0 ml of liquid agar at 45° C., 20 mg of solid test compound was added, to give a final concentration of 4 mg/ml. The agar was solidified in slants. The fungal cultures were then innoculated. […]

[11] = system: Trichophyton tonsuran; assay: Agar dilution method, growth on Sabouraud dextrose agar slants; type: cell-based, Trichophyton tonsurans; design: key: +++: Maximum Fungal Growth; ++: Moderate Fungal Growth; +: Minimum Fungal Growth; +/−: Very little Fungal Growth; −: No Fungal Growth; settings: 12th day after inoculation
Description: as §1

[12] = system: Microsporum canis; assay: as above; type: cell-based; design: key: +++: Maximum Fungal Growth; ++: Moderate Fungal Growth; +: Minimum Fungal Growth; +/−: Very little Fungal Growth; −: No Fungal Growth; settings: 12th day after inoculation
Description: as §1

[13] = system: Trichophyton rubrum; assay: as above; type: cell-based; design: key: +++: Maximum Fungal Growth; ++: Moderate Fungal Growth; +: Minimum Fungal Growth; +/−: Very little Fungal Growth; −: No Fungal Growth; settings: 12th day after inoculation
Description: as §1

[14] = system: Microsporum gypseum; assay: as above; type: cell-based; design: key: +++: Maximum Fungal Growth; ++: Moderate Fungal Growth; +: Minimum Fungal Growth; +/−: Very little Fungal Growth; −: No Fungal Growth; settings: 12th day after inoculation
Description: as §1

[15] = system: Pityrosporum ovale; assay: as above; type: cell-based; design: key: +++: Maximum Fungal Growth; ++: Moderate Fungal Growth; +: Minimum Fungal Growth; +/−: Very little Fungal Growth; −: No Fungal Growth; settings: 12th day after inoculation
Description: as §1

[16] = system: Microsporum audouinni; assay: as above; type: cell-based, Microsporum audouinii; design: key: +++: Maximum Fungal Growth; ++: Moderate Fungal Growth; +: Minimum Fungal Growth; +/−: Very little Fungal Growth; −: No Fungal Growth; settings: 12th day after inoculation
Description: as §1

[17] = system: Microsporum canis; assay: Direct addition method, solid compound in Sabouraud dextrose agar; type: cell-based; settings: against Microsporum canis
Description: as §2

For `CC1(C)CCC23CCC4(C)C(CCC5C6(C)CCC(OC(=O)CCCC(=O)O)C(C)(C)C6CCC54C)C2C1OC3` (stereo not drawn) [Allobetulin-3-glutarate], the Fungal growth ([1]; 12.5 μg/ml) was “++”, the Fungal growth ([1]; 25 μg/ml) was “+” and the Fungal growth ([1]; 50 μg/ml) was “+”. For the same compound, the Fungal growth ([1]; 100 μg/ml) was “−”, the Fungal growth [2] was “+” and the Fungal growth [3] was “−”. For the same compound, the Fungal growth [4] was “+”, the Fungal growth [5] was “+” and the Fungal growth [6] was “−”. The Fungal growth ([7]; 12.5 μg/ml) was “++”, the Fungal growth ([7]; 25 μg/ml) was “+” and the Fungal growth ([7]; 50 μg/ml) was “+”. For the same compound, the Fungal growth ([7]; 100 μg/ml) was “−”, the “Active against Microsporum audouinii” value [8] was “Microsporum audouinii” and the “Active against Trichophyton tonsurans” value [9] was “Trichophyton tonsurans”. The Pityrosporum ovale growth [10] was “+”, the Fungal growth ([11]; 12.5 μg/ml) was “+” and the Fungal growth ([11]; 25 μg/ml) was “+/−”. For the same compound, the Fungal growth ([11]; 50 μg/ml) was “−”, the Fungal growth ([11]; 100 μg/ml) was “−” and the Fungal growth ([12]; 12.5 μg/ml) was “+”. The Fungal growth ([12]; 25 μg/ml) was “+/−”, the Fungal growth ([12]; 50 μg/ml) was “−” and the Fungal growth ([12]; 100 μg/ml) was “−”. For the same compound, the Fungal growth ([13]; 12.5 μg/ml) was “++”, the Fungal growth ([13]; 25 μg/ml) was “++” and the Fungal growth ([13]; 50 μg/ml) was “+”. For the same compound, the Fungal growth ([13]; 100 μg/ml) was “−”, the Fungal growth ([14]; 12.5 μg/ml) was “+++” and the Fungal growth ([14]; 25 μg/ml) was “++”. For the same compound, the Fungal growth ([14]; 50 μg/ml) was “++”, the Fungal growth ([14]; 100 μg/ml) was “−” and the Fungal growth ([15]; 12.5 μg/ml) was “+++”. For the same compound, the Fungal growth ([15]; 25 μg/ml) was “+++”, the Fungal growth ([15]; 50 μg/ml) was “+|” and the Fungal growth ([15]; 100 μg/ml) was “−”. For the same compound, the Fungal growth ([16]; 12.5 μg/ml) was “+”, the Fungal growth ([16]; 25 μg/ml) was “+/−” and the Fungal growth ([16]; 50 μg/ml) was “−”. For the same compound, the Fungal growth ([16]; 100 μg/ml) was “−”.
In the case of `C=C(C)C1CCC2(COC(=O)CCC(=O)O)CC[C@@]3(C)C(CCC4[C@@]5(C)CCC(OC(=O)CCC(=O)O)C(C)(C)C5CC[C@]43C)C12` (stereo partly drawn) [Betulin-3,28-disuccinate], the Fungal growth ([1]; 125 μg/ml) is reported as “++”, the Fungal growth ([1]; 250 μg/ml) is reported as “+” and the Fungal growth ([1]; 500 μg/ml) is reported as “+”. The Fungal growth ([1]; 1000 μg/ml) was “−”, the Fungal growth [2] was “+” and the Fungal growth [3] was “−”. The Fungal growth [4] was “−”, the Fungal growth [5] was “+” and the Fungal growth [6] was “−”. For the same compound, the Fungal growth ([7]; 125 μg/ml) was “++”, the Fungal growth ([7]; 250 μg/ml) was “+” and the Fungal growth ([7]; 500 μg/ml) was “+”. For the same compound, the Fungal growth ([7]; 1000 μg/ml) was “−”, the “Active against Microsporum audouinii” value ([8]; listed as Betulin-3.28-di-succinate) was “Microsporum audouinii,” and the “best anti-fungal or anti-yeast activity by the direct addition method” value [17] was “against Microsporum canis”. The Pityrosporum ovale growth [10] was “+”, the Fungal growth ([11]; 125 μg/ml) was “++” and the Fungal growth ([11]; 250 μg/ml) was “+”. The Fungal growth ([11]; 500 μg/ml) was “+”, the Fungal growth ([11]; 1000 μg/ml) was “−” and the Fungal growth ([12]; 125 μg/ml) was “++”. For the same compound, the Fungal growth ([12]; 250 μg/ml) was “+”, the Fungal growth ([12]; 500 μg/ml) was “+” and the Fungal growth ([12]; 1000 μg/ml) was “−”. For the same compound, the Fungal growth ([13]; 125 μg/ml) was “++”, the Fungal growth ([13]; 250 μg/ml) was “+” and the Fungal growth ([13]; 500 μg/ml) was “+”. The Fungal growth ([13]; 1000 μg/ml) was “−”, the Fungal growth ([14]; 125 μg/ml) was “++” and the Fungal growth ([14]; 250 μg/ml) was “+”. For the same compound, the Fungal growth ([14]; 500 μg/ml) was “+”, the Fungal growth ([14]; 1000 μg/ml) was “−” and the Fungal growth ([15]; 125 μg/ml) was “+++”. The Fungal growth ([15]; 250 μg/ml) was “+++”, the Fungal growth ([15]; 500 μg/ml) was “+++” and the Fungal growth ([15]; 1000 μg/ml) was “+”. For the same compound, the Fungal growth ([16]; 125 μg/ml) was “+”, the Fungal growth ([16]; 250 μg/ml) was “−” and the Fungal growth ([16]; 500 μg/ml) was “−”. For the same compound, the Fungal growth ([16]; 1000 μg/ml) was “−”.
With `C=C(C)C1CCC2(COC(=O)c3ccccc3C(=O)O)CCC3(C)C(CCC4C5(C)CCC(O)C(C)(C)C5CCC43C)C12` (stereo not drawn) [Betulin-28-phthalate] the Fungal growth ([1]; 12.5 μg/ml) was “+++”, the Fungal growth ([1]; 25 μg/ml) was “++” and the Fungal growth ([1]; 50 μg/ml) was “+”. For the same compound, the Fungal growth ([1]; 100 μg/ml) was “−”, the Fungal growth ([7]; 12.5 μg/ml) was “+++” and the Fungal growth ([7]; 25 μg/ml) was “++”. For the same compound, the Fungal growth ([7]; 50 μg/ml) was “+”, the Fungal growth ([7]; 100 μg/ml) was “−” and the “Active against Microsporum audouinii” value [8] was “Microsporum audouinii”. The “Active against Trichophyton tonsurans” value [9] was “Trichophyton tonsurans”, the Fungal growth ([11]; 12.5 μg/ml) was “++” and the Fungal growth ([11]; 25 μg/ml) was “+”. For the same compound, the Fungal growth ([11]; 50 μg/ml) was “−”, the Fungal growth ([11]; 100 μg/ml) was “−” and the Fungal growth ([12]; 12.5 μg/ml) was “++”. For the same compound, the Fungal growth ([12]; 25 μg/ml) was “+”, the Fungal growth ([12]; 50 μg/ml) was “−” and the Fungal growth ([12]; 100 μg/ml) was “−”. For the same compound, the Fungal growth ([13]; 12.5 μg/ml) was “++”, the Fungal growth ([13]; 25 μg/ml) was “+” and the Fungal growth ([13]; 50 μg/ml) was “+”. The Fungal growth ([13]; 100 μg/ml) was “−”, the Fungal growth ([14]; 12.5 μg/ml) was “+++” and the Fungal growth ([14]; 25 μg/ml) was “++”. The Fungal growth ([14]; 50 μg/ml) was “++”, the Fungal growth ([14]; 100 μg/ml) was “−” and the Fungal growth ([15]; 12.5 μg/ml) was “+++”. The Fungal growth ([15]; 25 μg/ml) was “+++”, the Fungal growth ([15]; 50 μg/ml) was “++” and the Fungal growth ([15]; 100 μg/ml) was “−”. For the same compound, the Fungal growth ([16]; 12.5 μg/ml) was “++”, the Fungal growth ([16]; 25 μg/ml) was “+” and the Fungal growth ([16]; 50 μg/ml) was “−”. For the same compound, the Fungal growth ([16]; 100 μg/ml) was “−”.
